The results in this text go back to patent US20250197407A1 (Jazz Pharmaceuticals Ireland Limited, priority 2022, published 2025).

SOS1/KRAS WT, sequence (Q07889 564-1049): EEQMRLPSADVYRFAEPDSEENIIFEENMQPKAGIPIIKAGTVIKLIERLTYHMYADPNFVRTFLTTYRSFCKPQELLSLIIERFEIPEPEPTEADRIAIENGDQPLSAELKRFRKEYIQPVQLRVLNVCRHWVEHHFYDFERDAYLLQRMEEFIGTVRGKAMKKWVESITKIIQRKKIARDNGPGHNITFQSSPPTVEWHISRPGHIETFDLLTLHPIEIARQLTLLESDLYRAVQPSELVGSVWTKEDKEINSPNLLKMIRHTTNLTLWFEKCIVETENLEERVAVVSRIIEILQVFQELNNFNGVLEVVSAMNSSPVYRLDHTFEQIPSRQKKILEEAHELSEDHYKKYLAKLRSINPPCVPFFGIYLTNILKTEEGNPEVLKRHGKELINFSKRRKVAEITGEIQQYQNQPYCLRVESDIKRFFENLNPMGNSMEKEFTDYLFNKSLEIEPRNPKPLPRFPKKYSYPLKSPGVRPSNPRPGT

In the assay the target is SOS1/KRAS WT (Homo sapiens (Human), UniProt Q07889). Nature of the assay: SOS1/KRAS WT HTRF binding assay (FRET-based protein-protein interaction). The following applies: inhibition of His6-SOS1 (aa564-1049, 40 nM) binding to GST-KRAS-WT (aa1-188, 40 nM); at least two independent replicates; read-out: SOS1/KRAS WT HTRF Binding assay pIC50 (converted). From the text:
The capacity of compounds to inhibit SOS1 binding to KRAS-WT (wild-type) was quantified using a FRET-based protein-protein interaction assay. The assay is based on the transfer of energy between two fluorophores, a donor and an acceptor, when in close proximity. In this instance, the donor is a Europium-conjugated α-GST antibody that binds to GST-tagged KRAS-WT, and the acceptor is an XL665-conjugated α-His 6 antibody that binds to His 6-tagged SOS1. Binding of SOS1 to KRAS-WT results in an increased fluorescent signal at emission wavelength of 665 nm which can be detected on the EnVision plate reader. Compounds that inhibit binding will reduce the 665 nm signal emitted. Recombinant KRAS-WT protein (40 nM; Human KRAS, aa1-188 recombinant protein with N-terminal GST-tag) and SOS1 protein (40 nM; Human SOS1 exchange domain, aa564-1049 with N-terminal 6His-tag) were mixed together in assay buffer (5 mM HEPES pH7.3, 150 mM NaCl, 10 mM EDTA, 5 mM MgCl2, 0.05% BSA, 0.0025% NP-40, 1 mM DTT and 100 mM KF) and incubated at room temperature with a dose response of compound in a 384-well low volume white plate and a final volume of 5 ul. After a 60 minute incubation, 5 ul of 4 nM anti-GST-Eu(K) (Cisbio, France) combined with 20 nM anti-6His-XL665 (Cisbio, France), diluted in assay buffer, was added to the plate. Following a further 4 hr incubation at room temperature, time-resolved fluorescence was measured on the EnVision plate reader. DMSO (0.05%) and 10 μM reference compound were used to generate the Max and Min assay signals, respectively. Data was analysed using a four-parameter logistic model to calculate IC50 values, with at least two independent replicates performed for each compound.
Data was analyzed using a four-parameter logistic model to calculate IC50 values, with at least two independent replicates performed for each compound.
On the technique in general: Time-resolved FRET reads energy transfer from a long-lived donor to a nearby acceptor.
In the case of `Cc1nnc(NC(C)c2cccc(C(F)(F)F)c2)c2cc3c(cc12)n(C)c(=O)n3C1CCCC1` (stereo not shown) [Compound 1, 3-cyclopentyl-1,8-dimethyl-5-[1-[3-(trifluoromethyl)phenyl]-ethylamino]^− imidazo[4,5-g]phthalazin-2-one], the IC50 is 37.2 nM.

On to `Cc1nnc(N[C@H](C)c2cccc(C(F)(F)F)c2)c2cc3c(cc12)n(C)c(=O)n3C1CCCC1` [Compound 2, 3-cyclopentyl-1,8-dimethyl-5-[[(1R)-1-[3-(trifluoromethyl)phenyl]ethyl]amino] imidazo[4,5-g]phthalazin-2-one], for which the IC50 was 13.2 nM. For `Cc1nnc(N[C@H](C)c2cccc(C(F)(F)F)c2)c2cc3c(cc12)n(C)c(=O)n3C` [Compound 3, 1,3,8-trimethyl-5-[[(1R)-1-[3-(trifluoromethyl)phenyl]ethyl]amino] imidazo[4,5-g]phthalazin-2-one] the value was 20.9 nM; for `Cc1nnc(N[C@H](C)c2cc(N)cc(C(F)(F)F)c2)c2cc3c(cc12)n(C)c(=O)n3C` [Compound 4, 5-[[(1R)-1-[3-amino-5-(trifluoromethyl)phenyl]ethyl]amino]-1,3,8-trimethyl-imidazo[4,5-g]phthalazin-2-one], 17 nM. `Cc1nnc(N[C@H](C)c2cccc(C(F)F)c2)c2cc3c(cc12)n(C)c(=O)n3C` [Compound 5, 5-[[(1R)-1-[3-(difluoromethyl)phenyl]ethyl]amino]-1,3,8-trimethyl-imidazo[4,5-g]phthalazin-2-one]: the IC50 was 39.8 nM. For `Cc1nnc(N[C@H](C)c2cccc(C(F)(F)CO)c2)c2cc3c(cc12)n(C)c(=O)n3C` [Compound 6, 5-[[(1R)-1-[3-(1,1-difluoro-2-hydroxy-ethyl)phenyl]ethyl]amino]-1,3,8-trimethyl-imidazo[4,5-g]phthalazin-2-one] the value was 18.6 nM. As to `Cc1nnc(N[C@H](C)c2cccc(C(F)(F)CO)c2F)c2cc3c(cc12)n(C)c(=O)n3C` [Compound 7, 5-[[(1R)-1-[3-(1,1-difluoro-2-hydroxy-ethyl)-2-fluoro-phenyl]ethyl]amino]-1,3,8-trimethyl-imidazo[4,5-g]phthalazin-2-one], the IC50 is 17.4 nM. For `COCCn1c(=O)n(C)c2cc3c(C)nnc(N[C@H](C)c4cccc(C(F)(F)F)c4)c3cc21` [Compound 8, 3-(2-methoxyethyl)-1,8-dimethyl-5-[[(1R)-1-[3-(trifluoromethyl)phenyl]ethyl]amino]imidazo[4,5-g]phthalazin-2-one] the value was 12.6 nM; for `CCn1c(=O)n(C)c2cc3c(C)nnc(N[C@H](C)c4cccc(C(F)(F)F)c4)c3cc21` [Compound 9, 3-ethyl-1,8-dimethyl-5-[[(1R)-1-[3-(trifluoromethyl)phenyl]ethyl]amino] imidazo[4,5-g]phthalazin-2-one], 12 nM; for `Cc1c([C@@H](C)Nc2nnc(C)c3cc4c(cc23)n(C)c(=O)n4C)cccc1C(F)(F)CO` [Compound 10, 5-[[(1R)-1-[3-(1,1-difluoro-2-hydroxy-ethyl)-2-methyl-phenyl]ethyl]amino]-1,3,8-trimethyl-imidazo[4,5-g]phthalazin-2-one], 9.12 nM. For `Cc1nnc(N[C@H](C)c2cccc(C(F)(F)F)c2)c2cc3c(cc12)n(C)c(=O)n3CC(F)(F)F` [Compound 11, 1,8-dimethyl-5-[[(1R)-1-[3-(trifluoromethyl)phenyl]ethyl]amino]-3-(2,2,2-trifluoroethyl)imidazo[4,5-g]phthalazin-2-one] the value was 12 nM; for `Cc1nnc(N[C@H](C)c2cccc(C(F)(F)F)c2)c2cc3c(cc12)n(C)c(=O)n3C(C)C` [Compound 12, 3-isopropyl-1,8-dimethyl-5-[[(1R)-1-[3-(trifluoromethyl)phenyl]ethyl]amino]imidazo[4,5-g]phthalazin-2-one], 8.13 nM. As for `Cc1nnc(N[C@H](C)c2cccc(C(F)(F)F)c2)c2cc3c(cc12)n(C)c(=O)n3C1CC1` [Compound 13, 3-cyclopropyl-1,8-dimethyl-5-[[(1R)-1-[3-(trifluoromethyl)phenyl]ethyl]amino]imidazo[4,5-g]phthalazin-2-one], the figure is 11.5 nM; as for `Cc1nnc(N[C@H](C)c2cccc(C(F)(F)CO)c2)c2cc3c(cc12)n(C)c(=O)n3C(C)C` [Compound 14, 3-isopropyl-1,8-dimethyl-5-[[(1R)-1-[3-(1,1-difluoro-2-hydroxy-ethyl)phenyl]ethyl]amino]imidazo [4,5-g]phthalazin-2-one], 7.59 nM. Take `Cc1nnc(N[C@H](C)c2cccc(C(F)(F)CO)c2F)c2cc3c(cc12)n(C)c(=O)n3C(C)C` [Compound 15, 3-isopropyl-1,8-dimethyl-5-[[(1R)-1-[3-(1,1-difluoro-2-hydroxy-ethyl)-2-fluoro-phenyl]ethyl]amino]imidazo[4,5-g]phthalazin-2-one]: the IC50 is 8.32 nM.

Take `Cc1nnc(N[C@H](C)c2cccc(C(F)(F)C(C)(C)O)c2F)c2cc3c(cc12)n(C)c(=O)n3C` [Compound 16, 1,3,8-trimethyl-5-[[(1R)-1-[3-(1,1-difluoro-2-hydroxy-2-methyl-propyl)-2-fluoro-phenyl]ethyl]amino]imidazo[4,5-g]phthalazin-2-one]: the IC50 was 11.2 nM. As to `COCCn1c(=O)n(C)c2cc3c(N[C@H](C)c4cccc(C(F)(F)F)c4)nnc(C)c3cc21` [Compound 17, 1-(2-methoxyethyl)-3,8-dimethyl-5-[[(1R)-1-[3-(trifluoromethyl)phenyl]ethyl]amino] imidazo[4,5-g]phthalazin-2-one], the IC50 was 22.9 nM.

For the compound `Cc1nnc(N[C@H](C)c2cccc(C(F)(F)F)c2)c2cc3c(cc12)n(C)c(=O)n3CC1CC1` [Compound 18, 3-(cyclopropylmethyl)-1,8-dimethyl-5-[[(1R)-1-[3-(trifluoromethyl)phenyl]ethyl]amino] imidazo[4,5-g]phthalazin-2-one], the IC50 is 23.4 nM. For `CCn1c(=O)n(C)c2cc3c(C)nnc(N[C@H](C)c4cccc(C(F)(F)CO)c4F)c3cc21` [Compound 19, 3-ethyl-1,8-dimethyl-5-[[(1R)-1-[3-(1,1-difluoro-2-hydroxy-ethyl)-2-fluoro-phenyl]ethyl]amino]imidazo[4,5-g]phthalazin-2-one] the value was 9.12 nM; for `CCn1c(=O)n(C)c2cc3c(C)nnc(N[C@H](C)c4cccc(C(F)F)c4F)c3cc21` [Compound 20, 3-ethyl-1,8-dimethyl-5-[[(1R)-1-[3-(difluoromethyl)-2-fluoro-phenyl]ethyl]amino]imidazo[4,5-g]phthalazin-2-one], 10 nM.

In the case of `Cc1nnc(N[C@H](C)c2cccc(C(F)(F)CO)c2F)c2cc3c(cc12)n(C)c(=O)n3C1CCC1` [Compound 21, 3-cyclobutyl-1,8-dimethyl-5-[[(1R)-1-[3-(1,1-difluoro-2-hydroxy-ethyl)-2-fluoro-phenyl]ethyl]amino]imidazo[4,5-g]phthalazin-2-one], the IC50 was 9.77 nM. As for `Cc1nnc(N[C@H](C)c2cccc(C(F)(F)F)c2)c2cc3c(cc12)n(C)c(=O)n3C1CCC1` [Compound 22, 3-cyclobutyl-1,8-dimethyl-5-[[(1R)-1-[3-(trifluoromethyl)phenyl]ethyl]amino] imidazo[4,5-g]phthalazin-2-one], the figure is 11.5 nM.
